# Experimental data reported in US20150273055A1, “METHODS AND COMPOSITIONS FOR EXPANDING HEMATOPOIETIC STEM AND PROGENITOR CELLS” (UNIVERSITY OF ROCHESTER, priority 2012, published 2015).
# Entries after “also recorded” stand apart in the source; their conditions may differ.
# Assays:
# BM vasculature = assay: Histomorphometric analysis of hindlimb bone marrow vasculature after PTH treatment; format: in vivo, mice; settings: PTH treatment vs vehicle
# Source text: Osteoblasts (OBs) and the bone marrow (BM) vasculature constitute hematopoietic stem and progenitor cell (HSPC) niches. OB-activation by Parathyroid Hormone (PTH) expands HSPCs through the BM microenvironment. Activation of osteoblasts through systemic PTH treatment or expression of a constitutively active PTH1 receptor (PTH1R) increases trabecular bone and expands HSPCs in the bone marrow. To test if the vasculature is modulated by PTH, it was first assessed whether PTH expands BM endothelial structures. In a murine model of HSPC-expanding PTH treatment, PTH increased microvessels and vascular area in hindlimb histology (FIG. 3A, 3B and 3E-3H). […] To determine if PTH expands BM vasculature by increasing proangiogenic signals, VEGF-A was analyzed in PTH-stimulated BM. […]
# (§1) Methods of administration and analysis of the effects of PTH either alone or in combination are described above. To determine whether bone anabolic, HSPC-expanding regimens of PTH stimulation alter the vascular niche, mice were first treated intensively with PTH and the hindlimb BM vasculature was analyzed. PTH increased BM vascular structures per hindlimb section (femur and tibia) by histomorphometric analysis (FIG. 9A) as well as the area occupied by vasculature measured within the tibial metaphysis (FIG. 9B). […]
# [1] = tested on: CD31+ Sca1+ BM endothelial cells; assay: Flow cytometry of CD31+ Sca1+ bone marrow endothelial cells; format: in vivo, mice; settings: for PTH-mediated expansion of BM endothelial cells: bevacizumab 0.7 mg/kg once per day with PTH thrice per day 10 days, vs PTH alone
# Procedure: (§2) All drugs were administered by intraperitoneal injection. Following 10 days of treatment, mice were sacrificed (on the morning of the eleventh day) and samples were harvested. Hindlimb bone marrow samples were used to generate the data for FIG. 8A as well as for the competitive transplantation of whole bone marrow. Hindlimb bone marrow was harvested by crushing the right hindlimb of each mouse individually using a sterile mortar and pestle in 2.5 mL phosphate buffered saline, filtered through a 40 um cell strainer and placed on ice. For flow cytometric analysis, fresh, filtered bone marrow cells were subjected to a red blood cell lysis procedure using ammonium chloride and then prepared for flow cytometry by staining with a panel of fluorescently-conjugated antibodies recognizing markers of hematopoietic stem and progenitor cells. Samples were then run on an LSR-II 12 color flow cytometer and data was analyzed using TreeStar's FlowJo software. Statistics between treatment groups were analyzed by student's T test.
# (§3) Methods of administration and analysis of the effects of PTH either alone or in combination are described above. To determine whether bone anabolic, HSPC-expanding regimens of PTH stimulation alter the vascular niche, mice were first treated intensively with PTH and the hindlimb BM vasculature was analyzed. PTH increased BM vascular structures per hindlimb section (femur and tibia) by histomorphometric analysis (FIG. 9A) as well as the area occupied by vasculature measured within the tibial metaphysis (FIG. 9B). To clarify whether intensive PTH treatment was vasodilatory to existing vessels or increasing de novo endothelial structures, BMCs of PTH-treated mice were analyzed phenotypically by flow cytometry (FIG. 9D). Intensive PTH treatment expanded populations of BM endothelial cells defined by this immunophenotyic signature (FIG. 9E). […] This expansion of small BM blood vessels was also observed in close association with both trabecular and cortical bone when CD31 immunostaining was examined in the BM (FIG. 9E). The PTH-induced increase in endothelial structures was accompanied by an increase in perivascular α smooth muscle actin (αSMA+) (FIG. 9F), indicating a concomitant increase in perivascular, HSPC supportive stromal cells.
# [2] = tested on: vessels larger than 20 um in diameter; assay: Vascular micro-CT of vessels larger than 20 um in diameter; format: in vivo, mice; settings: vascular uCT, TID PTH
# Source text: FIGS. 3A-3H are graphs (FIGS. 3A-3G) and pictures (FIG. 3H) showing PTH increases bone marrow microvascularity. FIG. 3A is a graph showing histomorphometric analysis of bone marrow microvascular structures per hindlimb section (femur and tibia). FIG. 3B is a graph showing histomorphometric analysis of bone marrow vascular area, measured within a region of interest in the tibial metaphysis. FIG. 3C is a graph showing frequency of CD31+ Sca1+ bone marrow endothelial cells following TID PTH treatment. FIG. 3D is a graph showing frequency of CD31+ Sca1+ bone marrow endothelial cells isolated from CollcaPTH1R-expressing mice (TG) or wildtype littermates (WT). […]
# as §1, with “9B). To clarify whether intensive PTH treatment was vasodilatory to existing vessels or increasing de novo endothelial structures, BMCs of PTH-treated mice were analyzed phenotypically by flow cytometry (FIG. 9D).” for “9B).”
# VEGF-A = assay: Immunohistochemical staining for VEGF-A in hindlimb BM; format: in vivo; settings: PTH-treated mice vs vehicle, endosteal/bone surfaces
# Source text: Osteoblasts (OBs) and the bone marrow (BM) vasculature constitute hematopoietic stem and progenitor cell (HSPC) niches. OB-activation by Parathyroid Hormone (PTH) expands HSPCs through the BM microenvironment. Activation of osteoblasts through systemic PTH treatment or expression of a constitutively active PTH1 receptor (PTH1R) increases trabecular bone and expands HSPCs in the bone marrow. To test if the vasculature is modulated by PTH, it was first assessed whether PTH expands BM endothelial structures. In a murine model of HSPC-expanding PTH treatment, PTH increased microvessels and vascular area in hindlimb histology (FIG. 3A, 3B and 3E-3H). […] To determine if PTH expands BM vasculature by increasing proangiogenic signals, VEGF-A was analyzed in PTH-stimulated BM. […] To establish whether PTH directly stimulates osteoblastic Vegfa expression, mouse calvarial MC3T3 cells were treated with PTH at various stages of osteoblastic maturation. […] The magnitude of induction increased throughout osteoblastic differentiation. […] Bevacizumab blunted PTH-mediated expansion of phenotypic BM ECs when bevacizumab and PTH treatment was compared to PTH alone.
# To determine whether the PTH-dependent increase in BM microvascularity is due to local induction of proangiogenic signals, immunostaining for candidate angiogenic factors already implicated in marrow endothelial signaling was performed.
# [3] = tested on: osteoblastic UMR106 cells; assay: In vitro PTH stimulation of osteoblastic UMR106 cells; format: cell-based
# Procedure: (§4) To determine if PTH increases osteoblast-derived VEGF-A, in vitro PTH stimulation experiments were performed on two osteoblastic cell lines. […] Osteoblastic differentiation was observed through maturational changes in gene expression of Collagen1, Osteocalcin and Pth1r and the ability to form mineralized bone nodules. […] To test whether PTH could directly induce VEGF-A in primary mouse osteoblastic cells as it could in osteoblastic cell lines, mouse bone marrow stroma was harvested and cultured in osteoblastic maturation media prior to stimulation with PTH at specific points throughout differentiation. Again, osteoblastic differentiation was monitored through analysis of Collagen1, Osteocalcin and Pth1r expression as well as by the formation of mineralizing bone nodules.
# [4] = tested on: mouse calvarial MC3T3 cells; assay: In vitro PTH stimulation of MC3T3 cells during osteoblastic differentiation; format: cell-based
# Source text: Osteoblasts (OBs) and the bone marrow (BM) vasculature constitute hematopoietic stem and progenitor cell (HSPC) niches. OB-activation by Parathyroid Hormone (PTH) expands HSPCs through the BM microenvironment. Activation of osteoblasts through systemic PTH treatment or expression of a constitutively active PTH1 receptor (PTH1R) increases trabecular bone and expands HSPCs in the bone marrow. To test if the vasculature is modulated by PTH, it was first assessed whether PTH expands BM endothelial structures. In a murine model of HSPC-expanding PTH treatment, PTH increased microvessels and vascular area in hindlimb histology (FIG. 3A, 3B and 3E-3H). […] To determine if PTH expands BM vasculature by increasing proangiogenic signals, VEGF-A was analyzed in PTH-stimulated BM. […] To establish whether PTH directly stimulates osteoblastic Vegfa expression, mouse calvarial MC3T3 cells were treated with PTH at various stages of osteoblastic maturation. […] The magnitude of induction increased throughout osteoblastic differentiation. […]
# To determine if PTH increases osteoblast-derived VEGF-A, in vitro PTH stimulation experiments were performed on two osteoblastic cell lines. […] Again, osteoblastic differentiation was monitored through analysis of Collagen1, Osteocalcin and Pth1r expression as well as by the formation of mineralizing bone nodules.
# [5] = tested on: primary mouse osteoblastic cells; assay: PTH stimulation of primary mouse osteoblastic cells from bone marrow stroma; format: cell-based
# Procedure: as §4
# osteolineage cells = assay: Angiogenic signals (FGF2, Vegfa) in marrow and osteolineage cells of treated mice; format: in vivo
# Procedure: FGF2 is another angiogenic signal within the BM. In contrast to the effects of VEGF-A on endothelial permeability and migration, FGF2 enforces vascular stability. To determine whether osteoblastic activation by PTH can remodel the BM vasculature through the action of multiple angiogenic signals or VEGF-A alone, FGF2 changes in the marrow of PTH-stimulated mice were analyzed. Indeed, increased endosteal-associated FGF2 in hindlimb BM of mice treated with TID PTH, with a localization pattern similar to that of VEGF was observed. Moreover, FGF2 expression levels were increased within osteolineage cells isolated from TID PTH mice (FIG. 10E).
# Immunoreactive VEGF-A and FGF2 were both very high along endosteal surfaces of the hindlimb BM cavity following PTH as compared to control treatment.
# trabecular bone = assay: Micro-CT analysis of trabecular bone; format: in vivo, mice
# Procedure: The limbs were scanned on a Viva CT 40 (Scanco Medical, Bruttisellen, Switzerland) using a 55-kVp, 145-uA current and a 300-ms integration time with a resolution of 12.5 μm. Trabecular analysis was conducted on a 1.25-mm region 50 μm above the growth plate in the femur and a 625-μm 50 um below the growth plate in the tibia. Cortical analysis was conducted 4.375 mm above/below the growth plate of the femur/tibia for a distance of 375 μm.
# Due to the dramatic induction of osteoblastic VEGF-A observed in the setting of PTH stimulation, the functional relevance of this signal in multiple aspects of BM microenvironmental activation was analyzed.
# [6] = tested on: hematopoietic stem and progenitor cells (HSPCs); assay: Flow cytometric analysis of bone marrow HSPCs from treated mice; format: in vivo, C57B1/6 mice; settings: for PTH-induced expansion of phenotypic and functional BM HSPCs: αVEGF in combination with PTH
# Procedure: as §2, with “test. […]” for “test.”
# HSPCs = assay: Competitive transplantation of whole BM into lethally irradiated recipient mice; format: in vivo, C57B1/6 mice; settings: primary recipients of treated donor BM
# Procedure: Competitive transplantation of these cells was performed using a 4:1 donor to competitor cell ratio where the competitor was a C57B1/6 wildtype CD45.2-expressing male mouse and the recipient mice (10 mice per experimental group) were also C57B1/6 wildtype CD45.2-expressing male mice (6-8 weeks of age) that had been conditioned with a split dose of 10 Gray total body irradiation. Cell cocktails (containing the 4:1 ratio donor to competitor whole bone marrow cells) were transplanted into recipients by retro-orbital injection. Recipient mice were placed on a diet containing sulfatrim prior to the transplant and for 1 month post transplantation. Peripheral blood samples were collected at 3 weeks post transplant by bleeding from the sub-mandibular venous plexus into EDTA-containing microtainer blood tubes. Blood was then separated in order to isolate an enriched sample of mononuclear cells using PBS and dextran separation. Mononuclear cells were subjected to red blood cell lysis and then prepared for flow cytometry using a panel of antibodies recognizing B, T and myeloid cells as well as CD45.1 and CD45.2. Samples were then run on an LSR-II 12 color flow cytometer and data was analyzed using TreeStar's FlowJo software. Statistics between treatment groups were analyzed by student's T test. […]
# [7] = tested on: BM blood vessels and perivascular stromal cells; assay: CD31 and αSMA immunostaining in the BM; format: in vivo, mice; settings: PTH
# Procedure: as §3
# OBs = assay: PTH stimulation of OBs in vitro; format: cell-based
# LSKs = assay: Growth and survival of LSKs cultured in cytokine-supplemented media; format: cell-based, mice; settings: increasing concentrations of αVEGF
# CD105+ mesenchymal cells = assay: Flow cytometry of CD105+/Endoglin+ CD45− bone marrow mesenchymal cells; format: in vivo, C57B1/6 mice; settings: bevacizumab with PTH(1-34) or vehicle, 10 days
# Procedure: When administered to a live animal, pimonidazole-HCl precipitates in cells containing<14 μM oxygen or pO2<10 mm Hg and can be detected immunohistochemically. […] FIG. 7A is a schematic of VEGF-blocking experiment. […] FIG. 7B is a graph showing frequency of CD31+ Sca1+ bone marrow endothelial cells isolated from C57B1/6 mice treated as indicated. FIG. 7C is a graph showing frequency of
# CD105+/Endoglin+ CD45− non-hematopoietic bone marrow mesenchymal cells isolated from C57B1/6 mice treated as indicated. *P<0.05, **P<0.01
# [8] = αVEGF during TID PTH, effect on the effects of PTH
# [9] = αVEGF, baseline or PTH-enhanced
substance,measurement,setting,value
Parathyroid hormone (1-34) [PTH],BM microvessels / vascular structures per hindlimb section (femur and tibia),BM vasculature,increased
same,vascular area (tibial metaphysis),BM vasculature,increased
same,CD31+ Sca1+ BM endothelial cells,[1]; PTH treatment vs vehicle,increased; also recorded: expanded
same,"vessel frequency, density or volume",[2],no increase
same,VEGF-A protein staining in BM,VEGF-A,increased along bone surfaces; also recorded: strongly increased; also recorded: global increase
same,VEGF-A protein secretion,[3]; by six hours post PTH-stimulation,increase
same,Vegfa expression,"[3]; two hours post PTH stimulation, n=3, p=0.0055",8.500±1.320 fold change above baseline
same,secreted VEGF-A protein,[4],increased; also recorded: robust
same,Vegfa expression,[4]; throughout osteoblastic differentiation,strongly induced; also recorded: induced
same,soluble VEGF-A protein secreted into the culture media,[5]; PTH treatment,a significant effect of PTH treatment was not detected
same,Vegfa mRNA levels,[5]; as early as four hours post PTH treatment of maturing osteoblastic cells,increased
same,endosteal-associated FGF2 in hindlimb BM,osteolineage cells; TID PTH,increased
same,FGF2 expression levels within osteolineage cells,osteolineage cells; cells isolated from TID PTH mice,increases
same,Vegfa expression in osteolineage bone-associated cells,osteolineage cells; cells isolated from mice treated with PTH,increases
same,trabecular bone,trabecular bone; systemic PTH treatment,increases
same,HSPCs in the bone marrow,[6]; systemic PTH treatment,expands
same,multilineage hematopoietic reconstitution,HSPCs,transiently increased
same,perivascular α smooth muscle actin (αSMA+),[7],increase
same,small BM blood vessels (CD31 immunostaining) associated with trabecular and cortical bone,[7],expansion
same,FGF2 in OBs in vitro,OBs,simultaneously increased
same,expression of VEGF-A in OBs in vitro,OBs,increased
bevacizumab: anti-VEGF-A monoclonal antibody bevacizumab (referred to as αVEGF); humanized monoclonal antibody,PTH-mediated expansion of BM endothelial cells,[1]; listed as Bevacizumab,blunted
same,PTH-mediated expansion of BM endothelial cells,[1]; listed as anti-VEGF therapy,blocks
same,PTH-mediated expansion of BM endothelial cells,[1]; listed as αVEGF,significantly decreased
same,connectivity density of the trabecular bone,trabecular bone; [8],augment
same,number of bony trabeculae,trabecular bone; [8],augment
same,bone anabolic action of PTH,trabecular bone; αVEGF in combination with PTH,without blocking
same,trabecular bone volume,trabecular bone; [9],did not significantly alter
same,trabecular spacing,trabecular bone; [9],did not significantly alter
same,"PTH-mediated expansion of HSCs (Flt3−, CD48−, CD150+ LSKs)",[6]; VEGF inhibition with PTH,did not diminish
same,HSPCs,[6]; anti-VEGF therapy with or without PTH,expands
same,PTH-induced expansion of multipotent progenitor/short term repopulating HSPCs (MPP/ST-HSPCs),[6]; bevacizumab and PTH vs PTH alone,augmented
same,PTH-induced expansion of phenotypic and functional BM HSPCs,[6],further increased
same,PTH-induced expansion of phenotypic and functional BM HSPCs,[6]; listed as anti-VEGF-A treatment,augments
same,"Flt3+, CD48−, CD150− LSKs",[6]; αVEGF in the setting of PTH,trend towards an increase
same,"hematopoietic lineage−, Sca1+, c-kit+ cells (LSKs)",[6]; αVEGF in the setting of PTH,trend towards an increase
same,"Flt3+, CD48−, CD150− LSKs",[6]; αVEGF treatment alone,expanded
same,"hematopoietic lineage−, Sca1+, c-kit+ cells (LSKs)",[6]; αVEGF treatment alone,expanded
same,growth and survival of LSKs,LSKs,not significantly affected
same,CD105+ mesenchymal cells,CD105+ mesenchymal cells,does not reduce
